Measured values from patent publication US12060388B2, “Cell-penetrating peptides and methods of use thereof” (priority 2018, dated 2024).
No end group written: not given here. *: point of attachment. Biotin = O=C1N[C@H]2[C@H](CS[C@H]2CCCCC(=O)*)N1

Columns and labels:
HPV16 PsV = HPV16 PsV infectivity in HeLa S3 cells with chemical inhibitors; assay type: cell-based; conditions: MOI of one, 48 h.p.i.
Method: 5×10^4 HeLa S3 or HaCaT cells in 12-well plates were incubated with PsVs at MOI of approximately one. The number of packaged reporter plasmids required to achieve this MOI as assessed by flow cytometry for reporter gene expression from wild-type PsV was quantified by qPCR, and an equivalent number of genomes in mutant PsV were used to infect cells. Approximately five-fold more virus was used to attain this MOI in HaCaT cells. Cells were analyzed by flow cytometry on a Stratedigm-12 flow cytometer to determine the fraction of cells displaying HcRed fluorescence 48 h.p.i. To measure dependence on retromer, 1×10^5 HeLa S3 cells in a 12-well plate were transfected […] to infection with 10 pmol siRNAs targeting Vps29 (Dharmacon, Lafayette, CO; #D-009764-03) or Vps35 (Dharmacon, #D-010894-01) by using RNAiMAX (Thermo Fisher, Waltham, MA, #13778100) according to manufacturer's protocol. Cells transfected with a 10 pmol RISC-free siRNA were used as a control. Forty-eight h.p.i., infectivity was measured by flow cytometry for reporter gene expression. […] Forty-eight h.p.i., infectivity was measured by flow cytometry for HcRed expression. […] Forty-eight h.p.i., infectivity was measured by flow cytometry for HcRed expression.

[1] = test system: HPV16 PsV containing GFP11-tagged L2; test: Split GFP assay with aphidicolin, HaCaT/GFP1-10NES cells; assay type: cell-based; conditions: 6 μM, MOI of 2000, three h.p.i.
Method: FIG. 12A depicts HeLa S3 cells left untreated or treated with 6 μM aphidicolin. Twenty-four h later, cells were infected at MOI of one with wild-type HPV16 PsV or PsV containing L2-GFP11-CPP or L2-CPP-GFP11. Forty-eight h.p.i., the fraction of infected cells was determined by flow cytometry for HcRed fluorescence and normalized to untreated cells infected with wild-type HPV16 PsV. FIG. 12B depicts HaCaT/GFP1-10NES cells infected at an MOI of 2000 with wild-type HPV16 PsV or PsV containing GFP11-tagged L2 in the presence of absence of 6 μM aphidicolin. Three h.p.i., cells were examined by confocal microscopy for reconstituted GFP fluorescence. Fluorescence in individual cells (˜250 for each condition) is plotted from two independent experiments. […]
Generation of stable cell lines. […] Single cells were then plated in a 96-well plate, and monoclonal cell lines were isolated and tested by infection of HPV16-CPP-GFP11 PsV at ˜2000 MOI and monitoring fluorescence. […] Images were acquired with a Leica SP5 inverted fluorescence microscope to identify cell lines expressing cytoplasmic GFP1-10NES. […] Twenty-four hours later, live cells were examined by fluorescence microscopy. […] Twenty-four h later, live cells were examined by fluorescence microscopy. As expected, fluorescence with GFP11-CD8-CIMPR was reconstituted only when the GFP1-10 segment was luminal (FIG. 8F). […]

[2] = test system: wild-type HPV16 pseudovirus; test: Peptide inhibition experiment with L2-C, HeLa cells; assay type: cell-based; conditions: 4 μg peptide, infectivity 48 hours later
Method: HeLa cells were treated at 37° C. with 4 μg L2-C, a peptide containing the HPV16 L2 retromer binding site and CPP or mock treated. B represents N terminal biotinylation and Am represents C-terminal amidation. Two hours later, the cells were infected for two hours at 37° C. with wild-type HPV16 pseudovirus. Cells were washed and medium was replenished with medium containing the peptide for 24 hours. Infectivity was tested 48 hours later by using flow cytometry to measure fluorescence of HcRed expressed from a plasmid encapsidated in the pseudovirus particle. Similar results were obtained in two independent experiments.
HeLa cells were left untreated or treated at 37° C. with 4 μg L2-C, a peptide containing the HPV16 L2 retromer binding site and CPP. The sequence of L2-C is as follows: B-[…]-Am, (SEQ ID NO: 533), where B represents N-terminal biotinylation and Am represents C-terminal amidation. Two hours later, the cells were infected for two hours at 37° C. with wild-type HPV16 pseudovirus. Cells were washed and medium was replenished with medium containing the peptide for 24 hours. Infectivity was tested 48 hours later by using flow cytometry to measure fluorescence of HcRed expressed from a reporter plasmid encapsidated in the pseudovirus particle, and normalized to infectivity of cells infected in the absence of peptide. Similar results were obtained in two independent experiments.

HaCaT cells = test: Modulation of CPP action by flanking sequences, GFP fusion proteins on HaCaT cells; assay type: cell-based, human
Method: Fusion proteins with various segments of the C-terminus of HPV16 or HPV5 L2 were added to HaCaT cells. The sequences used are as follows:
In some cases, various concentrations of fusion proteins were added to assess efficacy. In other cases, the pH of the culture medium was physiological pH 7 or adjusted to acidic pH 4 prior to peptide addition, or the cells were incubated with peptide at physiological temperature of 37° C. or at 30° C. Activity was assessed by confocal microscopy for intracellular fluorescence. In some experiments, cell surface fluorescence was extinguished by treatment with the membrane-impermeable fluorescence quencher, trypan blue.

retromer (Vps35) = target: T1, retromer (Vps35) (Homo sapiens, UniProt O75436+Q96QK1); test: Biotinylated peptide pull-down from HeLa S3 lysate, blot for Vps35; assay type: binding; conditions: streptavidin pull-down
T1 construct: endogenous in cells; host or cells: HeLa S3 lysate (RIPA-MOPS buffer)
Method: For peptide pull-down experiments, N-terminal biotinylated L2 peptides (sequences shown in FIG. 2A) were purchased from ABClonal Science (Woburn, MA) at >95% purity. L2 wild-type was dissolved initially in 30% acetic acid and DMSO (˜70 μl each), and then dissolved in sterile deionized water with 0.01% sodium azide. L2-6A, L2-3R and L2-DM were initially solubilized in a small amount of DMSO (˜70-80 μl) and then dissolved in sterile deionized water with 0.01% sodium azide. Peptide stocks (5 mg/ml) were aliquoted and stored at −20° C. HeLa S3 cells plated in six-well plates were lysed at ˜80% confluency with 500 μl RIPA-MOPS buffer (20 mM morpholinepropanesulfonic acid [pH 7.0], 150 mM NaCl, 1% Nonidet P-40, 1 mM EDTA, 1% deoxycholic acid, 0.1% sodium dodecyl sulfate [SDS]) supplemented with protease inhibitors (1×HALT protease and phosphatase inhibitor cocktail (Thermo Scientific, Waltham, MA; #78443)). The lysate was centrifuged at 14,000 rpm for 20 min, and the supernatant was incubated with 10 μg of a biotinylated peptide for two h at 4° C. Fifty μl of streptavidin agarose beads slurry (Pierce, Rockford, IL; #20349) was added, and the mixture was gently rocked for 45 min at 4° C. […] Samples were analyzed by SDS-PAGE and immunoblotting with antibody recognizing Vps35 (Abcam, Cambridge, MA; ab57632).

C[C@H](NC(=O)Cc1cc(F)cc(F)c1)C(=O)N[C@H]1N=C(c2ccccc2)c2ccccc2N(C)C1=O [XXI]
inhibition of wild-type and L2-Tat PsV infection (HPV16 PsV; 250 nM, pretreated one h): near-complete inhibition

C[C@@]1(CO)[C@H](O)CC[C@@]2(C)[C@H]1CC[C@H]1C[C@@H]3C[C@@]12CC[C@]3(O)CO [aphidocolin, aphidicolin]
reconstituted GFP signal [1]: did not decrease the reconstituted GFP signal
effect on HPV infection (HPV16 PsV; 6 μM, pretreated 24 h): inhibited infection

B-SPQYTIIADAGDFYLHPSYYMLRKRRKR-Am [L2-C]
inhibition of infection by HPV16 PsV [2]: dramatic inhibition of infection

His6-GFP-linker-IPVVIIHPHDSTGDFYLHPSLHRRKRKRKYL [GFP fusion protein with HPV5 C-terminus]
cell binding, temperature dependence (HaCaT cells; three hours, 30° C. or 37° C.): better at 30 °C than at 37 °C

His6-GFP-linker-PQYTIIADAGDFYLHPSYYMLRKRRKR [GFP-21P-CPP]
cell binding and entry at pH 7 (HaCaT cells; three hours at 37° C.): binds

His6-GFP-linker-PQYTIIADAGDFYLHPSYYMLRKRRKRLPYFFSDVSLAA [GFP-HPV16 L2]
cell binding and entry at pH 4 (HaCaT cells; three hours at 37° C., pH 4): well
cell binding and entry at pH 7 (HaCaT cells; three hours at 37° C.): poorly

His6-GFP-linker-RKRRKR
cell binding and entry at pH 7 (HaCaT cells; three hours at 37° C.): active in cell binding and internalization, but is not as efficient

L2-3R: N-terminal biotinylated C-terminal L2 peptide with the 3R mutation (Biotin-SPQYTIIADAGDFYLHPSYYMLRRR)
retromer binding of L2 peptide in vitro (retromer (Vps35)): did not affect retromer binding
